Measurements: US20220372014A1, “NEUROPROTECTIVE COMPOUNDS AND METHODS OF USE THEREOF” (The Johns Hopkins University, priority 2019, published 2022)

Columns and labels:
[1] = system: HeLa cells or neuronal cells; assay: Cell death assay of Example 3 (MNNG, alamarBlue; protection against parthanatos, Table 4); assay type: cell-based; conditions: 1 μM test compound, MNNG-induced cell death, alamarBlue
Summary of the method: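 HeLa or neuronal cells (1×10^4/well) were pretreated 1 h at 37° C with 1 μM compound, exposed to MNNG for 15 min, washed, then re-incubated 18 h with 1 μM compound. Viability was read by alamarBlue fluorescence (ex 560/em 590 nm). Cell death was expressed relative to control wells.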

MIF = molecular target: T1, MIF (Homo sapiens, UniProt P14174); assay: Nuclease assay of Example 3 (MIF inhibitory activity, Table 4); assay type: biochemical; parameters: (%) inhibition of MIF nuclease activity: concentration or dose not given beside the values; conditions: nuclease assay of Example 3
T1 sequence (P14174 1-115): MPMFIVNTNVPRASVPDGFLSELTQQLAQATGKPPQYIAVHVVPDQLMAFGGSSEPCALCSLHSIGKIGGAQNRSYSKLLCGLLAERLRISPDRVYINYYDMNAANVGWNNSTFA
Summary of the method: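 Human genomic DNA (200 ng), pcDNA (200 ng) or PS^30-type substrates (1 μM) were incubated with MIF (0.25-8 μM final) in 10 mM Tris-HCl pH 7.0, 10 mM MgCl2, 1 mM DTT at 37 °C for 1 h (pcDNA, small substrates) or 4 h (genomic DNA). Cleavage was assessed by agarose or PAGE electrophoresis with EtBr staining and chemiluminescent detection of biotin-labelled DNA.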

SMILES | (%) inhibition of MIF nuclease activity (MIF) [%] | (%) inhibition of cell death [1] [%] | (%) inhibition of cell death ([1]; 1 µM) [%]
COc1ccc(CC[C@H]2OC(=O)[C@@H]3CCCCN3C(=O)C(=O)C(C)(C)COC(=O)C=CCCN(C)C(=O)[C@H](C)NC(=O)[C@H](COC(C)(C)C)N(C)C(=O)C(c3ccccc3)NC(=O)CN(C)C(=O)COc3cccc2c3)cc1OC (stereo partly shown) [compound 32] | 11.2 | 54.3 | –
COc1ccc(CC[C@H]2OC(=O)[C@@H]3CCCCN3C(=O)C(=O)C(C)(C)COC(=O)C=CCCN(C)C(=O)[C@@H]3CC(O)CN3C(=O)[C@H](COC(C)(C)C)N(C)C(=O)C(c3ccccc3)NC(=O)[C@H](C)N(C)C(=O)COc3cccc2c3)cc1OC (stereo partly shown) [compound 93] | 14.6 | 66.8 | –
COc1ccc(CC[C@H]2OC(=O)[C@@H]3CCCCN3C(=O)C(=O)C(C)(C)COC(=O)C=CCCN(C)C(=O)[C@H](c3ccccc3)NC(=O)C(C(C)C)N(C)C(=O)[C@@H](Cc3ccccc3)NC(=O)[C@H](CC(C)C)N(C)C(=O)CCC(=O)Nc3cccc2c3)cc1OC (stereo partly shown) [compound 90] | 15.8 | 48.5 | –
COc1ccc(CC[C@H]2OC(=O)[C@@H]3CCCCN3C(=O)C(=O)C(C)(C)COC(=O)C=CCCN(C)C(=O)[C@@H]3CCCN3C(=O)[C@H](COC(C)(C)C)N(C)C(=O)[C@H](COC(C)(C)C)NC(=O)[C@H](C)N(C)C(=O)COc3cccc2c3)cc1OC [compound 140] | 0.0 | 51.0 | –
COc1ccc(CC[C@H]2OC(=O)[C@@H]3CCCCN3C(=O)C(=O)C(C)(C)COC(=O)C=CCCN(C)C(=O)[C@@H]3CCCN3C(=O)[C@H](COC(C)(C)C)N(C)C(=O)C(c3ccccc3)NC(=O)[C@@H](C)N(C)C(=O)COc3cccc2c3)cc1OC (stereo partly shown) [compound 106] | 11.9 | 13.1 | –
COc1ccc(CC[C@H]2OC(=O)[C@@H]3CCCCN3C(=O)C(=O)C(C)(C)COC(=O)C=CCCN(C)C(=O)[C@H](CC3CCCCC3)NC(=O)[C@H](C(C)C)N(C)C(=O)[C@@H](Cc3ccccc3)NC(=O)[C@H](CC(C)C)N(C)C(=O)CCC(=O)Nc3cccc2c3)cc1OC [compound 87] | 17.1 | 51.3 | –
COc1ccc(CC[C@H]2OC(=O)[C@@H]3CCCCN3C(=O)C(=O)C(C)(C)COC(=O)C=CCCN(C)C(=O)[C@@H]3CCCN3C(=O)[C@H](COC(C)(C)C)N(C)C(=O)C(c3ccccc3)NC(=O)[C@H](C)N(C)C(=O)COc3cccc2c3)cc1 (stereo partly shown) [compound 151] | 6.8 | 45.7 | –
COc1ccc(CC[C@H]2OC(=O)[C@@H]3CCCCN3C(=O)C(=O)C(C)(C)COC(=O)C=CCCN(C)C(=O)[C@@H]3CCCN3C(=O)[C@H](COC(C)(C)C)N(C)C(=O)C(c3ccccc3)NC(=O)[C@H](C)N(C)C(=O)COc3cccc2c3)cc1OC (stereo partly shown) [compound 102] | 59.5 | – | 77.7
COc1ccc(CC[C@H]2OC(=O)[C@@H]3CCCCN3C(=O)C(=O)C(C)(C)COC(=O)C=CCCN(C)C(=O)[C@H](Cc3ccc(F)cc3)NC(=O)[C@H](COC(C)(C)C)N(C)C(=O)[C@H](Cc3ccc4ccccc4c3)NC(=O)[C@H](C)N(C)C(=O)COc3cccc2c3)cc1OC [compound 25] | 25.8 | 59.1 | –
COc1ccc(CC[C@H]2OC(=O)[C@@H]3CCCCN3C(=O)C(=O)C(C)(C)COC(=O)C=CCCN(C)C(=O)[C@H](CC3CCCCC3)NC(=O)[C@H](COC(C)(C)C)N(C)C(=O)[C@@H](Cc3ccc4ccccc4c3)NC(=O)[C@H](C)N(C)C(=O)COc3cccc2c3)cc1OC [compound 27] | 78.4 | 72.1 | –

The next lines start with results.

(%) inhibition of MIF nuclease activity (MIF) [%] | SMILES | (%) inhibition of cell death [1] [%] | (%) inhibition of cell death ([1]; 1 µM) [%]
40.2 | COc1ccc(CC[C@H]2OC(=O)[C@@H]3CCCCN3C(=O)C(=O)C(C)(C)COC(=O)C=CCCN(C)C(=O)[C@H](Cc3ccc4ccccc4c3)NC(=O)[C@H](Cc3ccccc3)N(C)C(=O)[C@@H](C)NC(=O)CN(C)C(=O)COc3cccc2c3)cc1OC [compound 73] | 53.0 | –
63.7 | COc1ccc(CC[C@H]2OC(=O)[C@@H]3CCCCN3C(=O)C(=O)C(C)(C)COC(=O)C=CCCN(C)C(=O)[C@H](C)NC(=O)[C@H](COC(C)(C)C)N(C)C(=O)[C@H](Cc3ccc4ccccc4c3)NC(=O)[C@H](C)N(C)C(=O)COc3cccc2c3)cc1OC [compound 17] | 78.3 | –
−4.7 | COc1ccc(CC[C@H]2OC(=O)[C@@H]3CCCCN3C(=O)C(=O)C(C)(C)COC(=O)C=CCCN(C)C(=O)[C@@H]3CCCN3C(=O)[C@H](COC(C)(C)C)N(C)C(=O)C(Cc3ccc(O)cc3)NC(=O)[C@H](C)NC(=O)COc3cccc2c3)cc1OC (stereo partly shown) [compound 142] | 42.5 | –
25.2 | COc1ccc(CC[C@H]2OC(=O)[C@@H]3CCCCN3C(=O)C(=O)C(C)(C)COC(=O)C=CCCN(C)C(=O)[C@H](Cc3ccc(F)cc3)NC(=O)[C@H](Cc3ccccc3)N(C)C(=O)[C@@H](C)NC(=O)CN(C)C(=O)COc3cccc2c3)cc1OC [compound 70] | 53.8 | –
9.9 | COc1ccc(CC[C@H]2OC(=O)[C@@H]3CCCCN3C(=O)C(=O)C(C)(C)COC(=O)C=CCCN(C)C(=O)[C@@H](CC(C)C)NC(=O)[C@H](COC(C)(C)C)N(C)C(=O)C(c3ccccc3)NC(=O)[C@H](C)N(C)C(=O)COc3cccc2c3)cc1OC (stereo partly shown) [compound 52] | 61.0 | –
56.8 | COc1ccc(CC[C@H]2OC(=O)[C@@H]3CCCCN3C(=O)C(=O)C(C)(C)COC(=O)C=CCCN(C)C(=O)[C@H](Cc3ccc(F)cc3)NC(=O)[C@H](COC(C)(C)C)N(C)C(=O)[C@@H](CC(C)C)NC(=O)CN(C)C(=O)COc3cccc2c3)cc1OC [compound 10] | 57.2 | –
76.3 | COc1ccc(CC[C@H]2OC(=O)[C@@H]3CCCCN3C(=O)C(=O)C(C)(C)COC(=O)C=CCCN(C)C(=O)[C@@H](CC(C)C)NC(=O)[C@H](Cc3ccccc3)N(C)C(=O)[C@@H](C)NC(=O)CN(C)C(=O)COc3cccc2c3)cc1OC [compound 67] | 73.7 | –
25.3 | COc1ccc(CC[C@H]2OC(=O)[C@@H]3CCCCN3C(=O)C(=O)C(C)(C)COC(=O)C=CCCN(C)C(=O)[C@@H]3CCCN3C(=O)[C@H](Cc3ccccc3)N(C)C(=O)[C@@H](C)NC(=O)CN(C)C(=O)COc3cccc2c3)cc1OC [compound 71] | 57.0 | –
34.9 | COc1ccc(CC[C@H]2OC(=O)[C@@H]3CCCCN3C(=O)C(=O)C(C)(C)COC(=O)C=CCCN(C)C(=O)[C@H](c3ccccc3)NC(=O)[C@H](Cc3ccccc3)N(C)C(=O)[C@@H](C)NC(=O)CN(C)C(=O)COc3cccc2c3)cc1OC [compound 75] | 52.8 | –
31.5 | COc1ccc(CC[C@H]2OC(=O)[C@@H]3CCCCN3C(=O)C(=O)C(C)(C)COC(=O)C=CCCN(C)C(=O)[C@H](C(C)C)NC(=O)[C@H](Cc3ccccc3)N(C)C(=O)[C@@H](C)NC(=O)CN(C)C(=O)COc3cccc2c3)cc1OC [compound 74] | 52.6 | –
